Measured values: article PMC7915765, “Biochemical Characterization, Specificity and Inhibition Studies of HTLV-1, HTLV-2, and HTLV-3 Proteases” (Life, 2021)
Like-named read-outs stand apart in the source and are kept apart here.

Columns and labels:
HTLV-1 PR = details: cited from earlier work
Description: Table 2 Catalytic efficiencies of HTLV PRs on different substrates representing natural cleavage site sequences. Cleavage sites are labelled by asterisks within the sequences. Abbreviations: MA (matrix), CA (capsid), NC (nucleocapsid), and TF1 (trans-frame 1). | column: kcat/KM [mM^−1 s^−1] / HTLV-1 PR || Table 3 Catalytic efficiencies of HTLV PRs on different substrates representing natural cleavage site sequences of viruses other than HTLV. Cleavage sites are labelled by an asterisk within the sequences. Abbreviations: MA (matrix), CA (capsid), NC (nucleocapsid), TF (transframe), RT (reverse-transcriptase), and IN (integrase). | column: Substrate; kcat/KM (mM^−1 s^−1) / HTLV-1 PR ^1

HTLV-2 PR = HTLV-2 PR (Human T-cell leukemia virus 2, UniProt P03363); test: Protease activity assay with oligopeptide substrates (RP-HPLC), HTLV-2 PR; assay type: biochemical, human T-cell leukemia virus type 2; parameters: made in house; host or cells: E. coli BL21(DE3); details: pH 5.6, 37 °C
Chain of HTLV-2 PR (P03363 447-571): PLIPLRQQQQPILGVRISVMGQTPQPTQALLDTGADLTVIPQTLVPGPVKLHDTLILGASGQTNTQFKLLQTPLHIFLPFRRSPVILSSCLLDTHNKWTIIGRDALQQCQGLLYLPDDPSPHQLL
Description: (§1) The oligopeptides representing the naturally occurring matrix/capsid (MA/CA), capsid/nucleocapsid (CA/NC), trans-frame protein/protease (TF1/PR), and PR/p1 cleavage sites of HTLV-1, -2, and -3 PRs were used as substrates. The oligopeptide substrates representing the natural sequences of HTLV PRs were ordered from BioBasic, while the oligopeptide substrates representing naturally occurring cleavage sites of various viruses, or the wild-type, the shortened, and the P4, P3, P2, P1, or P1′ variants of HTLV-1 MA/CA cleavage site (KTKVL*VVQPK) were in-house stocks. All peptides were dissolved in distilled water.
(§2) For kinetic measurements, we applied 10 µL 2× incubation buffer (0.5 M K3PO4, 4 M NaCl, 10 v/v% glycerol, 10 mM DTT, pH 5.6), 5 µL of HTLV-1, HTLV-2, or HTLV-3 PR (final concentration of the active enzyme was in 0.1–34.4 nM), and 0.5–5 µL oligopeptide substrate representing HTLV PR natural cleavage sites (0.05–1.10 mM final concentration). The final volume of the reaction mixture was set to 20 µL with distilled water if it was necessary. The reactions were initiated by the addition of the enzyme, were incubated at 37 °C for 0.5–4 h, and stopped by the addition of 180 µL 1 v/v% TFA. For substrates representing natural cleavage sites of retroviruses other than HTLV-1, -2, and -3 PRs (HIV-1, equine infectious anemia virus (EIAV), Rous sarcoma virus (RSV), mouse mammary tumor virus (MMTV), Mason-Pfizer monkey virus (MPMV), and murine leukemia virus (MuLV) and BLV) in a longer incubation time (24 h) was also applied. The cleavage products were separated by using a Nova-Pack C18 RP-HPLC column (3.9 mm × 150 mm, Waters Associates Inc, Milford, MA, USA) on HPLC (Merck-Hitachi LaChrom). Water-acetonitrile gradient (0–100%) was used for separation in the presence of 0.05% TFA at 2 mL/min flow rate. The kinetic parameters were determined by fitting the data—obtained at less than 20% substrate hydrolysis—to the Michaelis–Menten equation. The Gaussian equation was used to determine pH optimum and exponential growth equation for determination of optimal NaCl concentration, while linear regression was applied to plot the dependence of enzyme activity on temperature. Prism8 software (GraphPad Software Inc., San Diego, CA, USA) was used for evaluation. The kcat/KM catalytic constants were calculated based on the active enzyme concentration, which was determined by active site titration using the method described previously.

HTLV-3 PR = HTLV-3 PR (Human T-cell leukemia virus 3, UniProt Q4U0X6); test: Protease activity assay with oligopeptide substrates (RP-HPLC), HTLV-3 PR; assay type: biochemical, human T-cell leukemia virus type 3; parameters: made in house; host or cells: E. coli BL21(DE3), pET11a; details: pH 5.6, 37 °C
Chain of HTLV-3 PR (Q4U0X6 431-553): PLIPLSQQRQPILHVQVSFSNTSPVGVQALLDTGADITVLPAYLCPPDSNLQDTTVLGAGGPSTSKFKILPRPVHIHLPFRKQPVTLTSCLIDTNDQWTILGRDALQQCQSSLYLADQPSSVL
Description: as §1, §2

HIV-1 PR = details: cleavage sites of viruses other than HTLV, retrieved from the literature, ref [28]; cited from earlier work
Description: Table 3 Catalytic efficiencies of HTLV PRs on different substrates representing natural cleavage site sequences of viruses other than HTLV. Cleavage sites are labelled by an asterisk within the sequences. Abbreviations: MA (matrix), CA (capsid), NC (nucleocapsid), TF (transframe), RT (reverse-transcriptase), and IN (integrase). | column: kcat/KM (mM^−1 s^−1) / HIV-1 PR ^1

[1] = natural HTLV-1 cleavage site substrates, previously reported values, ref [34]
[2] = natural HTLV cleavage sites, substrate 0.05–1.10 mM, 2× buffer 0.5 M K3PO4, 4 M NaCl, 10 v/v% glycerol, 10 mM DTT, 0.5–4 h
[3] = cleavage sites of viruses other than HTLV, retrieved from the literature, ref [28]
[4] = cleavage sites of viruses other than HTLV, longer incubation time (24 h) also applied

Substance | kcat/KM (HTLV-1 PR; [1]) | kcat/KM (HTLV-2 PR; [2]) [M⁻¹ s⁻¹] | kcat/KM (HTLV-3 PR; [2]) [M⁻¹ s⁻¹] | kcat/KM (HTLV-1 PR; [3]) | kcat/KM (HIV-1 PR) | kcat/KM (HTLV-2 PR; [4]) | kcat/KM (HTLV-3 PR; [4])
APQVL*PVMHP [HTLV-1 MA/CA, oligopeptide substrate APQVL*PVMHP] | 85.2 ± 26.1 ^1 mM^−1 s^−1 | 5500 ± 1000 | 32500 ± 6700 | – | – | – | –
DSKAF*LADTW [MMTV PP21/P3, oligopeptide substrate DSKAF*LADTW] | – | – | – | not cleaved | 7500 M⁻¹ s⁻¹ | not cleaved | not cleaved
DELIL*PVKRK [MMTV P3/P8, oligopeptide substrate DELIL*PVKRK] | – | – | – | 2.6 mM⁻¹ s⁻¹ | 1500 M⁻¹ s⁻¹ | not cleaved | not cleaved
PPAIL*PIISE [BLV MA/CA, oligopeptide substrate PPAIL*PIISE] | – | – | – | 164.5 mM⁻¹ s⁻¹ | 300 M⁻¹ s⁻¹ | not cleaved | not cleaved
TATIM*MQRGN [HIV-1 P2/NC, oligopeptide substrate TATIM*MQRGN] | – | – | – | not cleaved | 74000 M⁻¹ s⁻¹ | not cleaved | not cleaved
PPMVG*VLDAP [BLV PR/P13, oligopeptide substrate PPMVG*VLDAP] | – | – | – | 0.7 mM⁻¹ s⁻¹ | 40 M⁻¹ s⁻¹ | not cleaved | not cleaved
TQTSLL*TLDDQ [MuLV NC/PR, oligopeptide substrate TQTSLL*TLDDQ] | – | – | – | not cleaved | not cleaved | not cleaved | not cleaved
KGPPVIL*PIQAP [HTLV-1 PR/P1, oligopeptide substrate KGPPVIL*PIQAP] | 288.3 ± 73.6 ^1 mM^−1 s^−1 | 20600 ± 2800 | 238400 ± 60100 | – | – | – | –
KARVL*AEAMS [HIV-1 CA/P2, oligopeptide substrate KARVL*AEAMS] | – | – | – | not cleaved | 90000 M⁻¹ s⁻¹ | not cleaved | not cleaved
PPYVG*SGLYP [RSV P2B/P10, oligopeptide substrate PPYVG*SGLYP] | – | – | – | not cleaved | not cleaved | not cleaved | not cleaved
PPVGFAG*AMA [MMTV P8/N, oligopeptide substrate PPVGFAG*AMA] | – | – | – | not cleaved | <10 M⁻¹ s⁻¹ | not cleaved | not cleaved
KTKVL*VVQPK [HTLV-1 CA/NC, oligopeptide substrate KTKVL*VVQPK] | 150.6 ± 15.1 ^1 mM^−1 s^−1 | 67200 ± 33400 | 30100 ± 15400 | – | – | – | –
VSQNY*PIVQ [HIV-1 MA/CA, oligopeptide substrate VSQNY*PIVQ] | – | – | – | not cleaved | 45300 M⁻¹ s⁻¹ | not cleaved | not cleaved
TSTLL*IENSS [MuLV RT/IN, oligopeptide substrate TSTLL*IENSS] | – | – | – | not cleaved | not cleaved | not cleaved | not cleaved
PRSSLY*PALTP [MuLV MA/P12, oligopeptide substrate PRSSLY*PALTP] | – | – | – | not cleaved | 200 M⁻¹ s⁻¹ | not cleaved | not cleaved
DPASIL*PVIP [HTLV-1 TF1/PR, oligopeptide substrate DPASIL*PVIP] | 3.8 ± 0.6 ^1 mM^−1 s^−1 | 400 ± 100 | 1200 ± 400 | – | – | – | –
PSEEY*PIMID [EIAV MA/CA, oligopeptide substrate PSEEY*PIMID] | – | – | – | 0.7 mM⁻¹ s⁻¹ | 15200 M⁻¹ s⁻¹ | not cleaved | not cleaved
LTFTF*PVVFMRR [MMTV N/CA, oligopeptide substrate LTFTF*PVVFMRR] | – | – | – | 0.01 mM⁻¹ s⁻¹ | 900 M⁻¹ s⁻¹ | not cleaved | not cleaved
PPAVS*LAMTM [RSV NC/PR, oligopeptide substrate PPAVS*LAMTM] | – | – | – | not cleaved | 130 M⁻¹ s⁻¹ | not cleaved | not cleaved
AKLVL*AQLSK [EIAV PR/RT, oligopeptide substrate AKLVL*AQLSK] | – | – | – | not cleaved | 13400 M⁻¹ s⁻¹ | not cleaved | not cleaved
TSQAF*PLRAG [MuLV P12/CA, oligopeptide substrate TSQAF*PLRAG] | – | – | – | not cleaved | 8700 M⁻¹ s⁻¹ | not cleaved | not cleaved
ERQAN*FLGKI [HIV-1 NC/P1, oligopeptide substrate ERQAN*FLGKI] | – | – | – | not cleaved | 1000 M⁻¹ s⁻¹ | not cleaved | not cleaved
CTLNF*PISP [HIV-1 PR/RT, oligopeptide substrate CTLNF*PISP] | – | – | – | not cleaved | 24100 M⁻¹ s⁻¹ | not cleaved | not cleaved
TFQAY*PLREA [RSV RT/IN, oligopeptide substrate TFQAY*PLREA] | – | – | – | not cleaved | 180 M⁻¹ s⁻¹ | not cleaved | not cleaved
IQPLIM*AVVNR [RSV P3/NC, oligopeptide substrate IQPLIM*AVVNR] | – | – | – | >100 mM⁻¹ s⁻¹ | 318000 M⁻¹ s⁻¹ | not cleaved | not cleaved
PVVAM*PVVIK [RSV P10/CA, oligopeptide substrate PVVAM*PVVIK] | – | – | – | 0.1 mM⁻¹ s⁻¹ | not cleaved | not cleaved | not cleaved
VSFNF*PQITL [HIV-1 TF/PR, oligopeptide substrate VSFNF*PQITL] | – | – | – | not cleaved | 6900 M⁻¹ s⁻¹ | not cleaved | not cleaved
SDLVL*LSAEARR [MMTV MA/PP21, oligopeptide substrate SDLVL*LSAEARR] | – | – | – | not cleaved | 6900 M⁻¹ s⁻¹ | not cleaved | not cleaved
KEEIM*LAYQG [EIAV RT/RH, oligopeptide substrate KEEIM*LAYQG] | – | – | – | <0.01 mM⁻¹ s⁻¹ | 18300 M⁻¹ s⁻¹ | not cleaved | not cleaved
RATVL*TVALH [RSV PR’/RT, oligopeptide substrate RATVL*TVALH] | – | – | – | 0.3 mM⁻¹ s⁻¹ | 1900 M⁻¹ s⁻¹ | not cleaved | not cleaved
